Assay results as given in PubChem BioAssay AID256 (DTP/NCI, 2004).
Where “and” joins values, the source holds several entries; their conditions need not be identical. Equal entries are not always repeated. Toxic doses and inconclusive results are not listed. How the source made its calls: active means survival T/C of 150% or more; inactive means T/C below 125% in these data.

System: CD2F1 mice, L1210 leukemia ip, survival T/C
Experiment: NCI In Vivo Anticancer Drug Screen. Data for tumor model L1210 Leukemia (intraperitoneal) in CD2F1 (CDF1) mice
Details: higher = longer survival
Summary of the method: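 Read-out first: treated-group measurement over vehicle-control measurement, expressed as a ratio. Animals bore a transplanted tumor line and were dosed with compound or vehicle.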

[1] = endpoint: mean survival time, dose: 25.0 mg/kg/injection, schedule: Q01DX009 (ip), vehicle: saline with Tween-80
[2] = endpoint: mean survival time, dose: 100.0 mg/kg/injection, schedule: Q01DX001 (ip), vehicle: saline with Tween-80
[3] = endpoint: mean survival time, dose: 100.0 mg/kg/injection, schedule: Q01DX001 (ip), vehicle: saline
[4] = endpoint: mean survival time, dose: 200.0 mg/kg/injection, schedule: Q01DX001 (ip), vehicle: saline
[5] = endpoint: mean survival time, dose: 100.0 mg/kg/injection, schedule: Q01DX009 (ip), vehicle: saline with Tween-80
[6] = endpoint: mean survival time, dose: 200.0 mg/kg/injection, schedule: Q01DX009 (ip), vehicle: saline with Tween-80
[7] = endpoint: mean survival time, dose: 400.0 mg/kg/injection, schedule: Q01DX009 (ip), vehicle: saline with Tween-80
[8] = endpoint: mean survival time, dose: 12.5 mg/kg/injection, schedule: Q01DX009 (ip), vehicle: saline with Tween-80
[9] = endpoint: mean survival time, dose: 50.0 mg/kg/injection, schedule: Q01DX009 (ip), vehicle: saline with Tween-80
[10] = endpoint: mean survival time, dose: 100.0 mg/kg/injection, schedule: Q04DX003 (ip), vehicle: saline with Tween-80
[11] = endpoint: mean survival time, dose: 200.0 mg/kg/injection, schedule: Q04DX003 (ip), vehicle: saline with Tween-80
[12] = endpoint: mean survival time, dose: 400.0 mg/kg/injection, schedule: Q04DX003 (ip), vehicle: saline with Tween-80
[13] = endpoint: mean survival time, dose: 100.0 mg/kg/injection, schedule: Q04DX002 (ip), vehicle: saline with Tween-80
[14] = endpoint: mean survival time, dose: 400.0 mg/kg/injection, schedule: Q04DX002 (ip), vehicle: saline with Tween-80

Measured: T/C

CC(C)(C)C1COP(=S)(c2ccccc2)OC1 (configuration not stated)
inactive: endpoint: mean survival time, dose: 25.0 mg/kg/injection, schedule: Q04DX003 (ip), vehicle: Klucel (hydroxypropylcellulose) (HPC) 94 % of control and 103 % of control | endpoint: mean survival time, dose: 50.0 mg/kg/injection, schedule: Q04DX003 (ip), vehicle: Klucel (hydroxypropylcellulose) (HPC) 103 % of control and 97 % of control | endpoint: mean survival time, dose: 100.0 mg/kg/injection, schedule: Q04DX003 (ip), vehicle: Klucel (hydroxypropylcellulose) (HPC) 97 % of control and 102 % of control

CN1CCCC1CCNc1nc(Nc2ccc(Cl)c(Cl)c2)nc2ccc(Cl)cc12 (configuration not stated)
inactive: [1] 97 % of control | [2] 103 % of control

O=C(CCCl)c1ccc2c(c1)OCO2
inactive: [3] 104 % of control | [4] 96 % of control

COc1cc2ccncc2cc1O
inactive: endpoint: mean survival time, dose: 25.0 mg/kg/injection, schedule: Q01DX009 (ip), vehicle: water 96 % of control | endpoint: mean survival time, dose: 50.0 mg/kg/injection, schedule: Q01DX009 (ip), vehicle: water 96 % of control

CC(CNC1CCCCC1)OC(=O)c1ccc(N(C)C)cc1 (configuration not stated)
inactive: endpoint: mean survival time, dose: 75.0 mg/kg/injection, schedule: Q01DX001 (ip), vehicle: saline 99 % of control | endpoint: mean survival time, dose: 150.0 mg/kg/injection, schedule: Q01DX001 (ip), vehicle: saline 100 % of control

CCOC(=O)C1CN(Cc2ccccc2)CCC1=O (configuration not stated)
inactive: endpoint: mean survival time, dose: 100.0 mg/kg/injection, schedule: Q01DX009 (ip), vehicle: saline 100 % of control | endpoint: mean survival time, dose: 200.0 mg/kg/injection, schedule: Q01DX009 (ip), vehicle: saline 103 % of control

COC(=O)C12OCC34C(CC5C(C)=CC(=O)C(O)C5(C)C3C(O)C1O)OC(=O)C(OC(=O)CC(C)C)C24 (configuration not stated)
inactive: endpoint: mean survival time, dose: 0.12 mg/kg/injection, schedule: Q01DX009 (ip), vehicle: saline + alcohol 101 % of control | endpoint: mean survival time, dose: 0.13 mg/kg/injection, schedule: Q01DX009 (ip), vehicle: saline + alcohol 102 % of control | endpoint: mean survival time, dose: 0.25 mg/kg/injection, schedule: Q01DX009 (ip), vehicle: saline + alcohol 100 % of control and 102 % of control | endpoint: mean survival time, dose: 0.5 mg/kg/injection, schedule: Q01DX009 (ip), vehicle: saline + alcohol 113 % of control and 95 % of control | endpoint: mean survival time, dose: 1.0 mg/kg/injection, schedule: Q01DX009 (ip), vehicle: saline + alcohol 101 % of control and 105 % of control | endpoint: mean survival time, dose: 2.0 mg/kg/injection, schedule: Q01DX009 (ip), vehicle: saline + alcohol 97 % of control and 104 % of control | endpoint: mean survival time, dose: 4.0 mg/kg/injection, schedule: Q01DX009 (ip), vehicle: saline + alcohol 104 % of control and 109 % of control

CSc1cc(C)c(O)c(CO)c1
inactive: endpoint: mean survival time, dose: 100.0 mg/kg/injection, schedule: Q04DX003 (ip), vehicle: other 104 % of control | endpoint: mean survival time, dose: 200.0 mg/kg/injection, schedule: Q04DX003 (ip), vehicle: other 98 % of control | endpoint: mean survival time, dose: 400.0 mg/kg/injection, schedule: Q04DX003 (ip), vehicle: other 100 % of control

CCOC(=O)C(=CN1CCCCC1)C(=O)OCC
inactive: [5] 92 % of control | [6] 94 % of control | [7] 96 % of control

CC(=O)NCCNC(C)=O
inactive: endpoint: mean survival time, dose: 100.0 mg/kg/injection, schedule: Q04DX003 (ip), vehicle: saline 91 % of control | endpoint: mean survival time, dose: 200.0 mg/kg/injection, schedule: Q04DX003 (ip), vehicle: saline 100 % of control | endpoint: mean survival time, dose: 400.0 mg/kg/injection, schedule: Q04DX003 (ip), vehicle: saline 91 % of control

CCOC(=O)C(=O)Nc1cc(C)ccc1C
inactive: endpoint: mean survival time, dose: 6.25 mg/kg/injection, schedule: Q01DX009 (ip), vehicle: saline with Tween-80 96 % of control | [8] 95 % of control | [1] 98 % of control

CC(=O)OCC1OC(Oc2ccccc2)C(OC(C)=O)C(OC(C)=O)C1OC(C)=O (configuration not stated)
inactive: endpoint: median survival time, dose: 50.0 mg/kg/injection, schedule: Q04DX002 (ip), vehicle: saline with Tween-80 100 % of control | endpoint: median survival time, dose: 100.0 mg/kg/injection, schedule: Q04DX002 (ip), vehicle: saline with Tween-80 100 % of control | endpoint: median survival time, dose: 200.0 mg/kg/injection, schedule: Q04DX002 (ip), vehicle: saline with Tween-80 111 % of control | endpoint: median survival time, dose: 400.0 mg/kg/injection, schedule: Q04DX002 (ip), vehicle: saline with Tween-80 88 % of control

C=C(Br)CNC(=O)C(C)(C)C
inactive: [8] 96 % of control | [1] 96 % of control | [9] 100 % of control | [5] 93 % of control

Cc1cc(Cl)ccc1NC(=O)Nc1ccccc1C(N)=O
inactive: [9] 95 % of control | [5] 95 % of control | [6] 91 % of control

CCCCC#CC(C)C
inactive: [10] 98 % of control | [11] 102 % of control | [12] 102 % of control

CC12C(=O)OC(=O)C1(C)C1CCC2O1 (configuration not stated)
inactive: endpoint: mean survival time, dose: 0.39 mg/kg/injection, schedule: Q01DX009 (ip), vehicle: saline with Tween-80 94 % of control | endpoint: mean survival time, dose: 0.78 mg/kg/injection, schedule: Q01DX009 (ip), vehicle: saline with Tween-80 98 % of control | endpoint: mean survival time, dose: 1.56 mg/kg/injection, schedule: Q01DX009 (ip), vehicle: saline with Tween-80 105 % of control | endpoint: mean survival time, dose: 1.56 mg/kg/injection, schedule: Q04DX002 (ip), vehicle: saline with Tween-80 92 % of control

CCCCCCCCCCCCCCCC[N+](C)(CCO)Cc1ccccc1 (configuration not stated)
inactive: endpoint: mean survival time, dose: 3.13 mg/kg/injection, schedule: Q04DX002 (ip), vehicle: saline with Tween-80 100 % of control | endpoint: mean survival time, dose: 6.25 mg/kg/injection, schedule: Q04DX002 (ip), vehicle: saline with Tween-80 100 % of control | endpoint: mean survival time, dose: 12.5 mg/kg/injection, schedule: Q04DX002 (ip), vehicle: saline with Tween-80 96 % of control

COc1ccccc1N/N=C1/CCCNC1=O
inactive: [5] 98 % of control | [6] 101 % of control | [7] 95 % of control

Nc1ncnc2cc3ncn(C4OC(CO)C(O)C4O)c3cc12 (configuration not stated)
inactive: endpoint: mean survival time, dose: 12.5 mg/kg/injection, schedule: Q01DX005 (ip), vehicle: water 100 % of control | endpoint: mean survival time, dose: 25.0 mg/kg/injection, schedule: Q01DX005 (ip), vehicle: water 104 % of control | endpoint: mean survival time, dose: 50.0 mg/kg/injection, schedule: Q01DX005 (ip), vehicle: water 106 % of control | endpoint: mean survival time, dose: 100.0 mg/kg/injection, schedule: Q01DX005 (ip), vehicle: water 100 % of control | endpoint: mean survival time, dose: 200.0 mg/kg/injection, schedule: Q01DX005 (ip), vehicle: water 100 % of control

CC(C(N)=O)C1CCC2(C)CCC(=O)C(C)C2C1O (configuration not stated)
inactive: [13] 104 % of control | endpoint: mean survival time, dose: 200.0 mg/kg/injection, schedule: Q04DX002 (ip), vehicle: saline with Tween-80 120 % of control | [14] 120 % of control

O=c1[nH]c2ccccc2nc1CBr
inactive: endpoint: mean survival time, dose: 3.75 mg/kg/injection, schedule: Q01DX009 (ip), vehicle: saline with Tween-80 98 % of control | endpoint: mean survival time, dose: 7.5 mg/kg/injection, schedule: Q01DX009 (ip), vehicle: saline with Tween-80 110 % of control | [8] 113 % of control | endpoint: mean survival time, dose: 15.0 mg/kg/injection, schedule: Q01DX009 (ip), vehicle: saline with Tween-80 104 % of control

O=C(COc1ccc(Cl)cc1Cl)Nc1ccccc1F
inactive: [10] 100 % of control | [11] 94 % of control | [12] 94 % of control

CC1=NN(c2cc(Cl)c(S(=O)(=O)O)cc2Cl)C(=O)C1
inactive: [5] 92 % of control | [6] 92 % of control | [7] 86 % of control

CN(C)/C(N)=N\c1nc(O)cc(=O)[nH]1
inactive: [3] 102 % of control | [4] 96 % of control | endpoint: mean survival time, dose: 400.0 mg/kg/injection, schedule: Q01DX001 (ip), vehicle: saline 96 % of control

CN(C)C(=S)Oc1ccc(S(=O)(=O)F)c(Cl)c1Cl
inactive: [13] 87 % of control | [14] 87 % of control

S=C(Cc1ccccc1)N1CCOCC1
inactive: [2] 98 % of control | endpoint: mean survival time, dose: 200.0 mg/kg/injection, schedule: Q01DX001 (ip), vehicle: saline with Tween-80 102 % of control | endpoint: mean survival time, dose: 300.0 mg/kg/injection, schedule: Q01DX001 (ip), vehicle: saline with Tween-80 101 % of control

CCOC(=O)Nc1cc(N)c(N)c(=O)[nH]1
inactive: endpoint: mean survival time, dose: 100.0 mg/kg/injection, schedule: Q01DX001 (ip), vehicle: carboxymethylcellulose (CMC) 102 % of control | endpoint: mean survival time, dose: 200.0 mg/kg/injection, schedule: Q01DX001 (ip), vehicle: carboxymethylcellulose (CMC) 96 % of control | endpoint: mean survival time, dose: 400.0 mg/kg/injection, schedule: Q01DX001 (ip), vehicle: carboxymethylcellulose (CMC) 102 % of control

CC(=O)C(C(C)=O)C1=C(Cl)C(=O)c2ccccc2C1=O
inactive: endpoint: mean survival time, dose: 75.0 mg/kg/injection, schedule: Q01DX001 (ip), vehicle: other 94 % of control | endpoint: mean survival time, dose: 150.0 mg/kg/injection, schedule: Q01DX001 (ip), vehicle: other 100 % of control | endpoint: mean survival time, dose: 300.0 mg/kg/injection, schedule: Q01DX001 (ip), vehicle: other 97 % of control

Cc1ccc(C(=O)NCCCOc2ccc(N3C(N)=NC(N)=NC3(C)C)cc2Cl)cc1S(=O)(=O)F
inactive: [8] 106 % of control | [1] 103 % of control | [9] 103 % of control | [5] 106 % of control
